These results are taken from patent US8367614B2, “Rheumatoid arthritis-preventive agent for oral intake” (Calpis Co., Ltd, priority 2006, dated 2013).

Test [1] deals with adjuvant arthritis. The experiment in a line: Adjuvant arthritis in rats, arthritis score (Example 2).
Test [2] deals with adjuvant arthritis. As to the kind of experiment: Adjuvant arthritis in rats, arthritis score (Example 1 and Comparative Examples 1-3). The following applies: test material 10% in 0.5% CMC, 1 ml/100 g oral once a day, average ± standard error. The format is in vivo, Female Lewis rats.

Turning to `CC(C)Cc1ccc(C(C)C(=O)O)cc1` (stereo not drawn) [Ibuprofen], the Arthritis score in the test on adjuvant arthritis [1] (Ibuprofen 0.3% in 0.5% CMC, 1 ml/100 g oral once a day, day 0) is given as 0; in the test on adjuvant arthritis [1] (Ibuprofen 0.3%, oral once a day, day 5) it was 0; in the test with adjuvant arthritis [1] (Ibuprofen 0.3%, oral once a day, day 9), 0.1 ± 0.1; with adjuvant arthritis [1] (Ibuprofen 0.3%, oral once a day, day 14) it was 6.5 ± 0.6; in the test with adjuvant arthritis [1] (Ibuprofen 0.3%, oral once a day, day 19), 9.0 ± 0.5; in the test on adjuvant arthritis [1] (Ibuprofen 0.3%, oral once a day, day 21), 9.5 ± 0.3.
Turning to sodium caseinate [Comp. Ex. 2], the Arthritis score in the test with adjuvant arthritis [2] (day 0 to 21, day 0, max 12 points) is 0.00; with adjuvant arthritis [2] (day 5), 0.00; with adjuvant arthritis [2] (day 9), 1.25 ± 0.37; in the test on adjuvant arthritis [2] (day 14) it was 8.25 ± 0.62; in the test with adjuvant arthritis [2] (day 19), 10.50 ± 0.33; with adjuvant arthritis [2] (day 22), 10.38 ± 0.32.
